From paper PMC3545992, “Trisubstituted Pyrazolopyrimidines as Novel Angiogenesis Inhibitors” (PLoS ONE, 2013)

Tests used:
[1] = system: chorioallantoic membrane (CAM); assay: Chorioallantoic membrane (CAM) assay, VEGF-induced vessel formation; assay type: in vivo, white leghorn; settings: 250 nmol compound with 2.5 ng VEGF per cellulose disc, 24 h
Experimental: Fertilized white leghorn eggs were incubated for 72 h at 37°C in humidified atmosphere. After transferring the growing embryo into Petri dishes, a second incubation period of 72 h followed. At day 6, cellulose discs with 2.5 ng VEGF/250 nmol compound were placed on the membrane. 2.5 ng VEGF/DMSO was used as control. Pictures were taken after 24 h of stimulation. Representative images out of at least three experiments are shown.
Fertilized white leghorn eggs were incubated for 72 h at 37°C in humidified atmosphere. After transferring the growing embryo into a Petri dish, a second incubation period of 72 h followed. At day 6, two cellulose discs, one with 2.5 ng VEGF (VEGF 165, human recombinant from PeproTech GmbH, Hamburg, Germany)/250 nmol compound and the other with 2.5 ng VEGF/DMSO as control were placed on one CAM. After 24 h of stimulation, the vascular structure in the stimulated areas of the CAM was visualized using a stereomicroscope and a CCD camera (Olympus, Munich, Germany) and pictures were taken. The cellulose disks were produced as follows: after preparing a cellulose solution (2.5% hydroxyethyl cellulose, 2% polyvinylpyrrolidone (PVP 17), 2% polyethylene glycol (PEG 400) in water), the mixture was autoclaved, resulting in a homogenized, clear solution. For each disk, 200 μl of the warm solution were filled into the preformed circles of the lid of a 96 well plate and allowed to polymerize under a laminar air flow for 48 h. Finally, the cellulose disks were removed using tweezers and stored in a sterile Petri dish until use.

HUVECs [2] = assay: Scratch assay (migration assay); assay type: cell-based, human; settings: 10 µM, 16 h, HUVECs
Experimental: A: HMEC-1 cells were seeded in the same density as for the proliferation assay and treated with the respective compound at 30 µM for 72 h to test whether reduced cell numbers in the proliferation assay are due to inhibition of proliferation or to excessive cell death. No increase of detached, obviously dead or propidium iodide positive cells was detected. B and C: Confluent layers of HUVECs were scratched and the cells were allowed to migrate for 16 h in the presence or absence of 10 µM of the compounds. B: The columns indicate the area re-covered by migrating cells (n = 3, mean ± SEM, * p<0.05, One Way ANOVA, Dunnett). C: Scratches at endpoint, representative images taken out of three experiments.
HUVECs were seeded into a 24-well plate. After reaching confluency, cells were scratched using a 100 µl pipette tip. The wounded monolayers were washed twice with PBS containing Ca^2+/Mg^2+; then growth medium containing the indicated concentration of the compounds was added. After 16 h of migration, cells were washed and subsequently fixed with 4% paraformaldehyde. […] Images were taken using the TILLvisON system (TILL Photonics GmbH, Gräfelfing, Germany) and a CCD-camera connected to an Axiovert 200 microscope (Zeiss, Oberkochen, Germany). Quantitative image analysis of the cell covered area was done by Wimasis GmbH, Munich. A completely closed scratch was set as 100% migration, the area of the original open scratch was set as 0% migration.

HUVECs [3] = assay: Quantification of lamellipodia and Rac1 immunocytochemistry in migrating cells; assay type: cell-based, human; settings: 8 h migration; for reduction of formation of lamellipodia: 10 µM; for recruitment of Rac1 to lamellipodia (in words): immunofluorescence
Experimental: A: Confluent layers of HUVECs were scratched and the cells were allowed to migrate for 8 h in the presence or absence of the respective concentration of the compounds, until clear lamellipodia formation was visible in the control. The actin cytoskeleton was then stained with rhodamin-phalloidine and fluorescence images (10x magnification) of the scratches were taken. Left panel: For quantitative evaluation of lamellipodia formation, cells with prominent lamellipodia and ruffles were counted in relation to the number of cells at the scratch front (n = 3, mean ± SEM, * p<0.05, One Way ANOVA, Dunnett). Right panel: Representative images of the scratch front (f-actin, 40x magnification). B: Cells treated like in A were fixed and stained for f-actin (red), cortactin (green) and Rac1 (white). Representative images out of three experiments are shown.
Confluent layers of HUVECs were scratched and stimulated in 8-well μ-slides as described above. The cells were allowed to migrate for 8 h in the presence or absence of the respective concentration of the compounds, until clear lamellipodia formation was visible in the control. The actin cytoskeleton was then stained with rhodamine-phalloidin (Life Technologies, Darmstadt, Germany) and fluorescence images of the scratches were taken in 10x magnification with the Zeiss LSM 510 META. For quantitative evaluation of lamellipodia formation, cells with prominent lamellipodia and ruffles were counted with ImageJ (Cell Counter plug-in by Kurt De Vos) in relation to the total number of cells at the scratch front. The ratio was calculated as number of lamellipodia-positive cells per 100 cells at scratch front. In the same setting immunofluorescence staining was performed. Fixed cells were permeabilized for 2 min with 0.1% Triton X-100 in PBS. Cells were washed and unspecific binding was blocked with 0.2% BSA in PBS for 15 min. Thereafter, cells were incubated with primary antibody (cortactin: rabbit polyclonal, 1∶100, Cell Signaling, and Rac1: mouse monoclonal, 1∶100, Upstate) in 0.2% BSA/PBS over night at 4°C. After three washing steps with PBS, the specimen were incubated with the corresponding AlexaFluor® -labeled secondary antibodies for 30 min at room temperature. Finally, the slides were again washed three times with PBS (5 min), embedded in FluorSave^TM Reagent mounting medium and covered with 8 mm ×8 mm glass cover slips.

Cdk2/CycA = target: T1, Cdk2/CycA (Homo sapiens, UniProt P24941); assay: In vitro kinase profile (ProQinase); assay type: biochemical
T1 construct: purchased ProQinase (Freiburg, Germany)
Experimental: (§1) Therefore, it was of interest to see which kinases, especially which Cdks, are inhibited by those compounds. The kinase profiling was performed by ProQinase (Freiburg, Germany) for LGR 1406 and 1407. For LGR 1404 kinase profiling has recently been published previously. LGR 1406 and 1407 were tested for their IC50 in a panel of 24 kinases, including the Cdk1, Cdk2, Cdk4, Cdk5, Cdk6, Cdk7 and Cdk9. The other kinases tested were PTK6, EGFR, FAK, FGFR1 and FGFR2, NLK, PAK4, VEGFR1 and VEGFR2, MEK1, ROCK1, RAF1, ALK, RSK3, AURKA, and AMPKα1.

Cdk4/CycD1 = target: T2, Cdk4/CycD1 (Homo sapiens, UniProt P11802); assay: In vitro kinase profile (ProQinase); assay type: biochemical
T2 construct: purchased ProQinase (Freiburg, Germany)
Experimental: as §1

T2 sequence (P11802 whole entry): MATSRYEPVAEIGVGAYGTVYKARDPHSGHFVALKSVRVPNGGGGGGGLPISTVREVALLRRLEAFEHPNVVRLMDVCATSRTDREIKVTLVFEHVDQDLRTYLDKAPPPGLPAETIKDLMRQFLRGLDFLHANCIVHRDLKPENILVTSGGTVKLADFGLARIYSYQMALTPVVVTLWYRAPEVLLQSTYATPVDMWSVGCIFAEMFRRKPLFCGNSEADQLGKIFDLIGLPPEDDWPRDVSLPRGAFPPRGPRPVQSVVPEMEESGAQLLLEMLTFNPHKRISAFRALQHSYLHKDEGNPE
T2 sequence (P24385 whole entry partner): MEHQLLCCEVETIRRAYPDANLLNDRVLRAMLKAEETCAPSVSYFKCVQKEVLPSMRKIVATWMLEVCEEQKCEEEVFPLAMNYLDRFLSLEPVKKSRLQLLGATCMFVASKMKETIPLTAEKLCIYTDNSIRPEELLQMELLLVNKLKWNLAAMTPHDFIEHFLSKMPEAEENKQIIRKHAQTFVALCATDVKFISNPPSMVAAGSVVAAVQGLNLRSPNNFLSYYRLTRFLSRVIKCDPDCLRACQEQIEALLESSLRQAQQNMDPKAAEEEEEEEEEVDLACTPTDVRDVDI

| SMILES | VEGF-induced vessel formation [1] | effect on endothelial cell migration (in words) (HUVECs [2]) | reduction of endothelial cell migration (HUVECs [2]) | reduction of formation of lamellipodia (HUVECs [3]) | recruitment of Rac1 to lamellipodia (in words) (HUVECs [3]) | IC50 (Cdk2/CycA) | IC50 (Cdk4/CycD1) |
| --- | --- | --- | --- | --- | --- | --- | --- |
| CC[C@H](CO)Nc1nc(NCc2ccccc2)c2n[nH]c(C(C)C)c2n1 [LGR 1404, 7-Benzylamino-5(R)-[(1-hydroxymethyl)propylamino]-3-isopropyl-1(2)H-pyrazolo[4,3-d]pyrimidine] | completely inhibit | significantly decrease | 27% | 54% | inhibit recruitment of Rac1 to lamellipodia |  |  |
| CC(C)c1n[nH]c2c(NCc3ccccc3)nc(NC3CCCCC3N)nc12 (stereo not shown) [LGR 1406, 5-[(2-E/Z-aminocyclohexyl)amino]-7-benzylamino-3-isopropyl-1(2)H-pyrazolo[4,3-d]pyrimidine] | completely inhibit | significantly decrease | 51% | 67% | inhibit recruitment of Rac1 to lamellipodia | 0.99 µM | 15 µM |
| CC(C)c1n[nH]c2c(NCc3ccccc3)nc(NC3CCC(N)CC3)nc12 (stereo not shown) [LGR 1407, 5-[(4-E-aminocyclohexyl)amino]-7-benzylamino-3-isopropyl-1(2)H-pyrazolo[4,3-d]pyrimidine] | completely inhibit | significantly decrease | 31% | 67% | inhibit recruitment of Rac1 to lamellipodia | 1.5 µM | 66 µM |
